We go through six molecules from patent publication US20200199537A1, “LIVER ORGANOID COMPOSITIONS AND METHODS OF MAKING AND USING SAME” (Children's Hospital Medical Center, priority 2017, published 2020).

The term cell viability denotes the share of living cells, or the viability signal relative to a control. A high value points to better survival.

The subject of data set [1] is lipotoxic human liver organoids. Nature of the data set: Evaluation of viability in organoids on vulnerable (lipotoxic, oleic acid) condition. It counts as cell-based. The method, then:
Next, 50 μM of Troglitazone was treated with or without 50 μM NAC for 24 h. […] Images were captured sequentially using fluorescent microscopy BZ-9000.

Data set [2] concerns bile transport activity (efflux of fluorescein diacetate) in human liver organoids.
Procedure: To quantify the inhibitory potential for FD excretion, Applicant developed a simple but robust quantification method by determining the fluorescent intensity ratio between outside and inside the organoid by image J (FIG. 4, panel B).
Fluorescein diacetate was used for evaluating bile transport activity in organoids. Around Day 25, the organoids were rinsed with PBS, and, fluorescein diacetate was treated to organoids in medium. […] After treatment or injection of fluorescein diacetate, images were captured on fluorescent microscopy BZ-X710 (Keyence). […] Changes in brightness or contrast during processing were applied equally across the entire image.
Data set [3] deals with human liver organoids. The note with it: for cell viability: human, 50 μM.
The subject of data set [4] is human liver organoids. Nature of the data set: Lipid accumulation in organoids after oleic acid treatment. It counts as cell-based. To be noted: 3 days after treatment, 800 μM. How it is done: Images were captured sequentially using fluorescent microscopy BZ-9000. […] The following regents or kits were used: BODIPY® 493/503 for lipids (Thermo Fisher Scientific), and SiR Actin Kit for cytoskeleton (USA Scientific, FL, USA), CellROX® Green Reagent for ROS (Fisher Scientific), TMRM (Thermo Fisher Scientific) for mitochondria. […] ROS production, mitochondria size and number were analyzed by IMARIS8.

For data set [5], the target named is MRP2 (Homo sapiens, UniProt Q92887). To be noted: previously reported; cited from earlier work.
MRP2, sequence (Q92887 whole entry): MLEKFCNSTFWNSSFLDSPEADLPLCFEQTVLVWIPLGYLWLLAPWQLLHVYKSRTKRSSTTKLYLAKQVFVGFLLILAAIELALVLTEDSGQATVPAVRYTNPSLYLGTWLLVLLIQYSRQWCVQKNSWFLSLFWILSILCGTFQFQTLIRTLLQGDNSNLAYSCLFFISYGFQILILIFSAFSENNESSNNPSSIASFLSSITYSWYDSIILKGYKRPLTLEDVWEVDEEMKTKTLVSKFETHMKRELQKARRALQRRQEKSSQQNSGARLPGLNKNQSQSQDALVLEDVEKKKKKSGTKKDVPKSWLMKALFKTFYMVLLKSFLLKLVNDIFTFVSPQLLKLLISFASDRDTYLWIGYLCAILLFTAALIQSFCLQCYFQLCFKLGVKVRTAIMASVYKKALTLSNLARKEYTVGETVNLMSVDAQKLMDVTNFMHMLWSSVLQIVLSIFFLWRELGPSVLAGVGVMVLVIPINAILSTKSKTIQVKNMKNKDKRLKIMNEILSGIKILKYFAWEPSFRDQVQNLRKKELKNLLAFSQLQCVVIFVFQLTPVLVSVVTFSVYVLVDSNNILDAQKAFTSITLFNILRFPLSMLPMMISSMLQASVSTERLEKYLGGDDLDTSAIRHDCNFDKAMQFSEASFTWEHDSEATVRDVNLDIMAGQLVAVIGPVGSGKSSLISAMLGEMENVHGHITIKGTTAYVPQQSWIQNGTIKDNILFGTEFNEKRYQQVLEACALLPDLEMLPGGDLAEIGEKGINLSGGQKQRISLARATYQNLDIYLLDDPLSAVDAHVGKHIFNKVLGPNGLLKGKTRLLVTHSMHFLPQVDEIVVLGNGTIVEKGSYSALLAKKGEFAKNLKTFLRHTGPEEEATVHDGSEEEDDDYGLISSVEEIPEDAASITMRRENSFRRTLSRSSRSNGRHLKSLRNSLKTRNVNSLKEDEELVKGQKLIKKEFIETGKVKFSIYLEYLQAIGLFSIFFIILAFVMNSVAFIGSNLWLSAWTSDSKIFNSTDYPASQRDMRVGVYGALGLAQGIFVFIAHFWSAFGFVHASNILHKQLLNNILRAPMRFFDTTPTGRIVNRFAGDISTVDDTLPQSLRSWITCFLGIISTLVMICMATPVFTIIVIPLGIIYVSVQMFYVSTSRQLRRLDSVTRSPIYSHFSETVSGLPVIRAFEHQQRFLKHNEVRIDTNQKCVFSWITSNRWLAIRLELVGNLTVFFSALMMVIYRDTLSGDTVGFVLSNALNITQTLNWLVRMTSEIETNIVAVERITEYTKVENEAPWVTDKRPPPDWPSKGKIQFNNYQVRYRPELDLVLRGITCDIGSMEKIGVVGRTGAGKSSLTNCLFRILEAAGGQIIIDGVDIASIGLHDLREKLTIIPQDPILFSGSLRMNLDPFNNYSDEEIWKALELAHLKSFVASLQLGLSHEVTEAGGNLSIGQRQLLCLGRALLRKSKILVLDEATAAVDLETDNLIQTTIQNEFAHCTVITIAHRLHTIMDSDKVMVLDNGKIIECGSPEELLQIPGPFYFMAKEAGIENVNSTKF
Data set [6] deals with CLF excretion into iPSC-liver organoids. To be noted: human.
Source text: To test the clinical relevance of organoid based cholestatic phenotyping method, Applicant employed pharmacogenomics insights into Applicant's system to address the fidelity question.

Like-named read-outs stand apart in the source and are kept apart here.

As for `CC(=O)N[C@@H](CS)C(=O)O` [NAC, N-acetylcysteine], in data set [1] (lipotoxic condition, 50 μM Troglitazone with 50 μM NAC, 24 h), the “cell viability (rescue from Troglitazone toxicity)” value is reported as “significantly improved”.
On to `Cc1c(C)c2c(c(C)c1O)CCC(C)(COc1ccc(CC3SC(=O)NC3=O)cc1)O2` (centres unmarked) [Troglitazone], for which the “efflux of FD” value in data set [2] is “significantly decreased”. The “cell viability compared to control” value in data set [1] (lipotoxic condition (800 μM oleic acid 3 days), 50 μM drug, 24 h) is on record as −40%. Moreover, in data set [1] (lipotoxic condition, 24 h), the “organoid morphology after treatment” value is “massive fragmentation of organoids”. Besides, the “cell viability relative to TOL, DICLO and BOS” value in data set [3] was “significantly lowered”. For the same molecule, the cell viability came to 85% in data set [3] (24 h) and 67% in data set [3] (72 h).
For `CCCCCCCC/C=C\CCCCCCCC(=O)O` [oleic acid], in data set [4], the “lipid accumulation in organoids” value was “intense”.
Turning to `CN(CCOc1ccc(CC2SC(=O)NC2=O)cc1)c1ccccn1` (centres unmarked) [Rosiglitazone], in data set [1], the “vulnerability of steatotic organoids to drug toxicity” value is “vulnerable”.
For `COc1ccccc1Oc1c(NS(=O)(=O)c2ccc(C(C)(C)C)cc2)nc(-c2ncccn2)nc1OCCO` [Bosentan], the “export by efflux transporter MRP2” value in data set [5] was “mediates export”. Besides, in data set [2], the “efflux of FD” value is “significantly decreased”. Further, the “specificity of drug induced cholestasis to CYP2C9*2 iPSC lines” value in data set [6] was “specific to CYP2C9 poor metabolizer donor-derived HLO”.
Consider `CCc1nn(CCCN2CCN(c3cccc(Cl)c3)CC2)c(=O)n1CCOc1ccccc1` [Nefazodone], for which the “efflux of FD” value in data set [2] was “significantly decreased”. Moreover, the “cell viability relative to TOL, DICLO and BOS” value in data set [3] is given as “significantly lowered”.
